In general, IC50 refers to the concentration needed to halve the response being measured. Usually melting point stands for the temperature, or range, at which the solid turns liquid. One may read the inhibition as the percentage by which the read-out fell short of the control.

Each structure is given as a SMILES string.

Data set [1] concerns A549 cells. As to the kind of experiment: Cell apoptosis analysis, Annexin V-FITC/PI flow cytometry. The data set is classed as cell-based, Human. As to conditions: A549, 10 μM, 48 h. An excerpt: Apoptosis of A549 cells is an efficient route to clear out the extra cancer cells in the tissue homeostasis.
In general terms: Flow cytometry measures light scatter and fluorescence of single cells or particles in a stream.

Data set [2] deals with A549 cells. As to the kind of experiment: Cell cycle analysis, PI flow cytometry. The following applies: 48 h.
Protocol: The experimental data of apoptosis and cell cycle for A549 cells were evaluated in BD Accuri C6 flow cytometry (American BD Corporation Shanghai Co., Ltd.), provided by the School of Pharmaceutical Sciences, Guizhou University.
(B) Profiles obtained by FACS. The percentages for different phases of the cell cycle were illustrated in the histogram.
For the next data set, the system named is PC-3 cells. As to the kind of experiment: Cytotoxicity evaluation (MTT assay), PC-3. The format is cell-based. As to conditions: Homo sapiens, mean ± SD of three replicates. (Tetrazolium assays rely on reduction of a dye to a coloured formazan, in cell work by metabolically active cells.)
Another data set deals with HepG2 cells. As to the kind of experiment: Cytotoxicity evaluation (MTT assay), HepG2. The format is cell-based. The following applies: Homo sapiens, mean ± SD of three replicates.
Data set [3] has as its system A549 cells. As to the kind of experiment: Cytotoxicity evaluation (MTT assay), A549. The data set is classed as cell-based. The following applies: Homo sapiens, mean ± SD of three replicates.
The subject of the next data set is L02 cells. As to the kind of experiment: Cytotoxicity evaluation (MTT assay), L02 normal cells. As to conditions: Homo sapiens, L02, read-out: IC50 L02.
Data set [4] has as its target T1, wild type EGFR tyrosine kinase (EGFR^wt) (Homo sapiens, UniProt P00533).
T1 construct: purchased PTM Bio; Co., Ltd
As to the kind of experiment: In vitro EGFR^wt-TK assay (ELISA). The format is biochemical. The following applies: mean ± SD of three replicates; for EGFR^wt-TK inhibition rate / inhibition at 1 µM: 1 μM; for inhibition at 1 µM: read-out: EGFR^wt-TK inhibition rate. For orientation: ELISA stands for enzyme-linked immunosorbent assay.

T1 sequence (P00533 25-1210): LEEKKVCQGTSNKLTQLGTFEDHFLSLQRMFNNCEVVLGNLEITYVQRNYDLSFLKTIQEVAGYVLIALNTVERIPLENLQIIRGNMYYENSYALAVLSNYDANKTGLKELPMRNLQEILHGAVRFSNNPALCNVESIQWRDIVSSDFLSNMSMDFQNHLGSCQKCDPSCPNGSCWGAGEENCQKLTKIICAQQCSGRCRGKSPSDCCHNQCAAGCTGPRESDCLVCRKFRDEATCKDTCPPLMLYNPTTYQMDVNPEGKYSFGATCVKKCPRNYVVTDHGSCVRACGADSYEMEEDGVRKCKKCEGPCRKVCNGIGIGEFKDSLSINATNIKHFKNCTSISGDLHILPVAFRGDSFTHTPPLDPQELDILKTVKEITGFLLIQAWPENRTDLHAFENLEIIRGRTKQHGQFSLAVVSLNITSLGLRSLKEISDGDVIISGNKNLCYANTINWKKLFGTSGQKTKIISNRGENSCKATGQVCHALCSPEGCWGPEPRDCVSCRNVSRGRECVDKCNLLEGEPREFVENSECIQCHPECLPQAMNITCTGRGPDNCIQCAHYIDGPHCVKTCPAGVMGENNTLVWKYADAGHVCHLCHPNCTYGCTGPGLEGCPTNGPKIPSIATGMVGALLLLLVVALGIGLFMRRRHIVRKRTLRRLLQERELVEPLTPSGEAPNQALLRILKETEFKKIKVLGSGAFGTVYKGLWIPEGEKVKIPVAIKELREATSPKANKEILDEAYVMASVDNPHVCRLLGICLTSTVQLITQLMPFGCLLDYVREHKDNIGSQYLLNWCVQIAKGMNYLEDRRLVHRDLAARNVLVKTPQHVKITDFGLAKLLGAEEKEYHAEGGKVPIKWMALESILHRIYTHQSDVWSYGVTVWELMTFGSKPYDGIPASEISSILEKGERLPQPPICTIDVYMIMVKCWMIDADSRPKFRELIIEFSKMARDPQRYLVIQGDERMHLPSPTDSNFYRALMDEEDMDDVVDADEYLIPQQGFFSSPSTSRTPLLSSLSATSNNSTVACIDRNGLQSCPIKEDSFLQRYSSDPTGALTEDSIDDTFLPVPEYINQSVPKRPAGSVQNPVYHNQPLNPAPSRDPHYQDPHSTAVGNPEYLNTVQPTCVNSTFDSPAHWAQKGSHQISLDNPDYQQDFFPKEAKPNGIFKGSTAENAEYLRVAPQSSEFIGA
Protocol for L02 cells: Three tumour cells with high expression of EGFR^wt were used to test the antitumor activity of the compounds including, A549 (Human non-small-cell lung cancer cell line) cells, PC-3 (Human prostate cancer cell line) cells, and HepG2 (Human hepatocellular carcinomas cell line) cells. They were all purchased from the Shanghai Cell Bank of the Chinese Academy of Sciences. L02 (normal human liver cell line) cells were also used to evaluate the cytotoxicity. […] The IC50 values were calculated from the dose − response curve under Graph-Pad Prism.

In the case of `COc1cc2ncnc(Nc3ccc(F)c(Cl)c3)c2cc1OCCCN1CCOCC1` [Gefitinib, reference compound], in the data set with A549 cells [1], the “early apoptotic cells (Q2-4)” value came to 7.77% and the “late apoptotic cells (Q2-2)” value was found to be 10.62%. The “Percentage of cells in G2/M phase” value in the data set on A549 cells [2] (A549, 10 μM) is 21.71%.

On to `CNC(=O)c1ccsc1Nc1nc(Nc2ccc(NC(=O)c3cccc(F)c3)cc2)ncc1C(F)(F)F` [4c, 2-{2-[4–(3-Fluoro-benzoylamino)-phenylamino]-5-trifluoromethyl-pyrimidin-4-ylamino}-thiophene-3-carboxylic acid methylamide], for which the melting point lay in the range of 217.1 to 219 °C. 2.46 ± 0.42 µM corresponded to half-maximal inhibition in the data set on PC-3 cells (IC50). Also, in the data set with A549 cells [1], the “early apoptotic cells (Q2-4)” value worked out at 10.70% and the “late apoptotic cells (Q2-2)” value is listed as 57.84%. The compound also came in with a half-maximal inhibitory concentration (IC50) in the data set on HepG2 cells of 2.21 ± 0.5 µM. In the data set with A549 cells [3], this compound showed an IC50 of 0.56 ± 0.12 µM. The concentration for half-maximal inhibition (IC50) in the data set on L02 cells is greater than 40 µM. Further, in data set [4], the “EGFR^wt-TK inhibition rate” value is reported as 61.69 ± 2.08%, the inhibition at 1 µM was greater than 50% and the concentration for half-maximal inhibition (IC50) was found to be 0.32 ± 0.047 µM. Also, the “Percentage of cells in G2/M phase” value in the data set with A549 cells [2] (A549, 1 μM) is recorded as 51.09%. Besides, in the data set with A549 cells [2] (A549, 10 μM), the “Percentage of cells in G2/M phase” value stood at 59.32%.

The compound `CNC(=O)c1ccsc1Nc1nc(Nc2ccc(Nc3c(NC4CCC(O)CC4)c(=O)c3=O)cc2)ncc1C(F)(F)F` (centres unmarked) [6g, 2-(2-{4-[2–(4-Hydroxy-cyclohexylamino)-3,4-dioxo-cyclobut-1-enylamino]-phenylamino}-5-trifluoromethyl-pyrimidin-4-ylamino)-thiophene-3-carboxylic acid methylamide] registered a melting point greater than 250 °C. The compound further showed a 50% inhibitory concentration (IC50) with PC-3 cells greater than 20 µM. Further, in the data set with HepG2 cells, the IC50 was greater than 20 µM. This compound yielded a concentration for half-maximal inhibition (IC50) with A549 cells [3] greater than 20 µM. For the same compound, the IC50 in the data set on L02 cells was greater than 40 µM. Moreover, the inhibition at 1 µM in data set [4] is 9.27 ± 0.25%.

In turn, `CCCCCCNc1c(Nc2ccc(Nc3ncc(C(F)(F)F)c(Nc4sccc4C(=O)NC)n3)cc2)c(=O)c1=O` [6b, 2-{2-[4-(2-Hexylamino-3,4-dioxo-cyclobut-1-enylamino)-phenylamino]-5-trifluoromethyl-pyrimidin-4-ylamino}-thiophene-3-carboxylic acid methylamide] came in with a melting point greater than 250 °C. This compound returned a concentration for half-maximal inhibition (IC50) in the data set with PC-3 cells greater than 20 µM. Further, the IC50 in the data set with HepG2 cells is greater than 20 µM. For the same compound, the IC50 in the data set on A549 cells [3] is greater than 20 µM. The IC50 with L02 cells was greater than 40 µM. In addition, the inhibition at 1 µM in data set [4] was found to be 17.4 ± 0.32%.

As to `CNC(=O)c1ccsc1Nc1nc(Nc2ccc(Nc3c(NCCNC(=O)C4CCCC4)c(=O)c3=O)cc2)ncc1C(F)(F)F` [8c, 2-[2–(4-{2-[2-(Cyclopentanecarbonyl-amino)-ethylamino]-3,4-dioxo-cyclobut-1-enylamino}-phenylamino)-5-trifluoromethyl-pyrimidin-4-ylamino]-thiophene-3-carboxylic acid methylamide], the melting point is greater than 250 °C. The IC50 with PC-3 cells came to 9.69 ± 1.13 µM. The compound further showed an IC50 with HepG2 cells of 9.54 ± 0.91 µM. In the data set with A549 cells [3], the half-maximal inhibitory concentration (IC50) came out at 7.32 ± 0.65 µM. For the same compound, in the data set on L02 cells, the concentration for half-maximal inhibition (IC50) was greater than 40 µM. The inhibition at 1 µM in data set [4] came out at 28.1 ± 1.27%.

Turning to `CNC(=O)c1ccsc1Nc1nc(Nc2ccc(Nc3c(NCCNC(=O)OC(C)(C)C)c(=O)c3=O)cc2)ncc1C(F)(F)F` [6i, [2-(2-{4-[4-(3-Methylcarbamoyl-thiophen-2-ylamino)-5-trifluoromethyl-pyrimidin-2-ylamino]-phenylamino}-3,4-dioxo-cyclobut-1-enylamino)-ethyl]-carbamic acid tert-butyl ester], the melting point is greater than 250 °C. Also, in the data set with PC-3 cells, the IC50 amounted to 5.33 ± 0.47 µM. Also, the half-inhibitory concentration (IC50) in the data set with HepG2 cells came out at 5.24 ± 0.51 µM. Besides, in the data set with A549 cells [3], the IC50 worked out at 3.11 ± 0.48 µM. Also, the IC50 with L02 cells was greater than 40 µM. For the same compound, in data set [4], the “EGFR^wt-TK inhibition rate” value is listed as 57.37 ± 1.82%, the inhibition at 1 µM is greater than 50% and the IC50 turned out to be 0.66 ± 0.13 µM.

As to `CNC(=O)c1ccsc1Nc1nc(Nc2ccc(NC(=O)c3ccc(F)c(F)c3)cc2)ncc1C(F)(F)F` [4e, 2-{2-[4-(3,4-Difluoro-benzoylamino)-phenylamino]-5-trifluoromethyl-pyrimidin-4-ylamino}-thiophene-3-carboxylic acid methylamide], the melting point was 244.3 to 245.9 °C. The half-maximal inhibitory concentration (IC50) with PC-3 cells was greater than 20 µM. In addition, in the data set with HepG2 cells, the IC50 was greater than 20 µM. The IC50 in the data set with A549 cells [3] was greater than 20 µM. The half-inhibitory concentration (IC50) in the data set with L02 cells was greater than 40 µM. Further, the inhibition at 1 µM in data set [4] was found to be 27.9 ± 1.34%.

The compound `CNC(=O)c1ccsc1Nc1nc(Nc2ccc(NC(=O)c3ccc(OC)cc3)cc2)ncc1C(F)(F)F` [4a, 2-{2-[4-(4-Methoxy-benzoylamino)-phenylamino]-5-trifluoromethyl-pyrimidin-4-ylamino}-thiophene-3-carboxylic acid methylamide] gave a melting point greater than 250 °C. The same compound displayed an IC50 in the data set with PC-3 cells of 12.3 ± 0.89 µM. The compound also displayed a concentration for half-maximal inhibition (IC50) with HepG2 cells of 11.5 ± 0.77 µM. For the same compound, in the data set on A549 cells [3], the concentration for half-maximal inhibition (IC50) came out at 9.32 ± 0.68 µM. Moreover, in the data set on L02 cells, the IC50 was greater than 40 µM. Moreover, the inhibition at 1 µM in data set [4] came out at 31.6 ± 3.27%.

For the origin of these results see paper PMC8920385, “Design, synthesis and biological evaluation of a series of dianilinopyrimidines as EGFR inhibitors” (Journal of Enzyme Inhibition and Medicinal Chemistry, 2022).
